Experiment [1] deals with T1, human MCR3 receptor (Homo sapiens, UniProt P41968).
T1 construct: expressed in transfected cells
The experiment is described as follows: MCR3 standard functional assay (Protocol B): cAMP AlphaScreen in HEK cells. Type of experiment: cell-based. The settings on record: Table 5; for Selectivity MCR3/MCR4: MCR4 by Protocol C; for EC50: Protocol B. The method, then:
(§1) Stimulation of adenylate cyclase following receptor activation is a widely used measure of functional activity for a number of receptor systems. The functional assay to measure cyclic AMP (cAMP) utilises human embryonic kidney (HEK) cells that stably express the human melanocortin MCR1, MCR3 or MCR4 receptor. Activation of MCR1, MCR3 or MCR4 receptors stimulates adenylate cyclase, generating cAMP, which is measured using AlphaScreen™ (PerkinElmer assay kits.
(§2) The AlphaScreen™ cAMP assay kit consists of ‘donor beads’, ‘acceptor beads’, and biotinylated cAMP which links the different beads together. Excitation of this linked complex at […] in the Fusion™-α microplate analyser results in light emission between […].
(§3) (i) MCR1. MCR3 and MCR4 Standard Functional Assay Methodology [Assay Protocol A, B AND C Respectively]
(§4) Determination of activity against the human MCR1, MCR3 and MCR4 receptor subtypes was carried out for compounds according to the present invention using three immortalised human embryonic kidney (HEK) cell lines that had been biologically engineered to express the human melanocortin MCR1, MCR3 or MCR4 receptor subtypes. These cell lines were engineered using protocols akin to those outlined by Gouarderes et al (Gouarderes, C., (2002) Neuroscience, 115(2); 349-361).
(§5) Such-compound-induced activation of these MCR1, MCR3 or MCR4 receptors lead to the stimulation of the cellular enzyme adenylate cyclase, which in turn lead to the cellular generation, and intra-cellular accumulation, of cyclic adenosine monophosphate (cAMP). […] Intracellular levels of cAMP were quantified using the commercially available AlphaScreen™ assay kits from PerkinElmer. A detailed assay protocol and an explanation of the concept underlying this kit is available through the PerkinElmer website (www.perkinelmer.com). The protocol listed below provides a summary this information.
(§6) The quantity of intracellular cAMP produced by compound-induced activation of the MCR1, MCR3 and MCR4 receptors in these three cell lines was measured using a Fusion™-α microplate analyser set to stimulate at a wavelength of 680 nm and to measure the energy emitted at wave lengths between […]. Compound-induced increases in MCR1, MCR3 or MCR4 receptor activation were subsequently quantified as a decrease in the quantity of light emitted at wavelengths between […]. Data analysis was subsequently performed using a curve-fitting program and the apparent potency of the test compound (expressed as an EC50 and defined as the effective compound concentration that elicited 50% of the maximum compound-induced response) extrapolated from the fitted curve.
Stimulation buffer (as per AlphaScreen™ protocol): HBSS supplemented with 0.5 mM IBMX, 5 mM HEPES, 0.1% (w/v) BSA and 10 mM MgCl2.
Lysis buffer (as per AlphaScreen™ protocol): 5 mM HEPES solution supplemented with 0.1% (w/v) BSA and 0.3% (v/v) Tween-20.
Detection mix (as per AlphaScreen™ protocol): Lysis buffer supplemented with the biotinylated cAMP (10 nM) and Donor beads (10 μg/ml) as supplied in the AlphaScreenT cAMP assay kit.
For the MCR1, MCR3 and MCR4 standard functional assay methodologies compounds were initially dissolved in DMSO to give a compound concentration of 4 mM and then further diluted for the assay in stimulation buffer to give actual concentrations 2-fold greater than that desired as the final assay concentration.
The three HEK cell lines, as detailed hereinbefore, expressing the human MCR1, MCR3 or MCR4 receptor subtypes were grown in T225 vent cap flasks containing 50 ml of growth medium (DMEM supplemented with 10% (v/v) FCS, 2 mM L-Glutamine, 25 mM HEPES and 1.0 mg/ml Geneticin) and maintained in a cell incubator at a temperature of 37° C. and in an environment containing 5% CO2. Cells were harvested when they reached 80-90% confluency by first removing the existing growth medium and then washing with PBS that had been pre-warmed to a temperature of 37° C. […]
Background: In Alpha technology, singlet oxygen from a donor bead excites a nearby acceptor bead.

The target in experiment [2] is T2, human MCR4 receptor (Homo sapiens, UniProt P32245).
T2 construct: expressed in transfected cells
T2 sequence (P32245 whole entry): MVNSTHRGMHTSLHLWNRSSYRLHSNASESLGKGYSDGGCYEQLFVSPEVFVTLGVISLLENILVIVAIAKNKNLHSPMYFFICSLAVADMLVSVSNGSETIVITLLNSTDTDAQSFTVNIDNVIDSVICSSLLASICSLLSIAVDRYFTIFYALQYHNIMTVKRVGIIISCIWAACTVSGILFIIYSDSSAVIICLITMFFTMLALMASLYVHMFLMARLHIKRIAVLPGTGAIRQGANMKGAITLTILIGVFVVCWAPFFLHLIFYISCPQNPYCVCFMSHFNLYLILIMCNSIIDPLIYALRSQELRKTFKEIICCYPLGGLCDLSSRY
The experiment is described as follows: MCR4 standard functional assay (Protocol C): cAMP AlphaScreen in HEK cells. The class given is cell-based. The settings on record: Table 5. The method, then:
as §1, §2, §3, §4, §5, §6
Stimulation buffer (as per AlphaScreen™ protocol): HBSS supplemented with 0.5 mM IBMX, 5 mM HEPES, 0.1% (w/v) BSA and 10 mM MgCl2. […]

The text below walks through data of patent US7649002B2, “(3,5-dimethylpiperidin-1yl)(4-phenylpyrrolidin-3-yl)methanone derivatives as MCR4 agonists” (Pfizer Inc, priority 2004, dated 2010).

T1 sequence (P41968 whole entry): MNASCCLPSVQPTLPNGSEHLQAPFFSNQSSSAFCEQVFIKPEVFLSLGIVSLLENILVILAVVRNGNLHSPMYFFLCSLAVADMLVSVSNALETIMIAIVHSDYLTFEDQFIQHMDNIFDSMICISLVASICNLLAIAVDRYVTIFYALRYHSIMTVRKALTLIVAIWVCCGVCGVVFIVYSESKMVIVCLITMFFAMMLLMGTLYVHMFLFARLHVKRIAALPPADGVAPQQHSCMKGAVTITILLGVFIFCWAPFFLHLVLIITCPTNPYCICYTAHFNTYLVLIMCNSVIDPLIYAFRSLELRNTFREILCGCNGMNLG

Take `CCN1C[C@@H](C(=O)N2C[C@@H](C)[C@](O)(C3CCCCC3)[C@@H](C)C2)[C@H](c2ccc(F)cc2F)C1` (relative stereo) [Example 2, (3R,4R,5S)-4-Cyclohexyl-1-{[(3S*,4R*)4-(2,4-difluorophenyl)-1-ethylpyrrolidin-3-yl]carbonyl}-3,5-dimethylpiperidin-4-ol]: the “Selectivity MCR3/MCR4” value in experiment [1] was 123. Further, the EC50 – broadly, the concentration needed to bring the measured effect to its halfway point – in experiment [1] was 8380 nM; in experiment [2], 68 nM.
For `CCCC[C@@]1(O)[C@H](C)CN(C(=O)[C@@H]2CN(C(C)(C)C)C[C@H]2c2ccc(F)cc2F)C[C@@H]1C` [Example 3, (3R,4R,5S)-4-Butyl-1-{[(3S,4R)-1-tert-butyl-4-(2,4-difluorophenyl)pyrrolidin-3-yl]carbonyl}-3,5-dimethylpiperidin-4-ol], in that order: 60, 2620 nM and 44 nM.
